Consider 23 compounds from PubChem BioAssay AID330 (DTP/NCI, 2004).

The subject of this assay is P388 leukemia ip, CD2F1 mice, survival T/C. Put plainly: NCI In Vivo Anticancer Drug Screen. Data for tumor model P388 Leukemia (intraperitoneal) in CD2F1 (CDF1) mice. Particulars: endpoint: median survival time, higher = longer survival. The gist of the method: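 Mice carrying the transplanted tumor received test compound or vehicle. Survival was recorded in each group, and the value is the treated-group measurement divided by that of the vehicle-treated control group.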

The mark [1] stands for this setting: dose: 100.0 mg/kg/injection, schedule: Q01DX001 (ip), vehicle: Klucel (hydroxypropylcellulose) (HPC).
The mark [2] stands for this setting: dose: 50.0 mg/kg/injection, schedule: Q04DX003 (ip), vehicle: saline with Tween-80.
The mark [3] stands for this setting: dose: 12.5 mg/kg/injection, schedule: Q01DX009 (ip), vehicle: distilled water + Tween-80.
Where [4] appears, read: dose: 25.0 mg/kg/injection, schedule: Q01DX009 (ip), vehicle: distilled water + Tween-80.
Setting [5] is: dose: 50.0 mg/kg/injection, schedule: Q01DX005 (ip), vehicle: saline with Tween-80.
Setting [6] is: dose: 100.0 mg/kg/injection, schedule: Q01DX005 (ip), vehicle: saline with Tween-80.
The mark [7] stands for this setting: dose: 200.0 mg/kg/injection, schedule: Q01DX005 (ip), vehicle: saline with Tween-80.
[8] abbreviates: dose: 60.0 mg/kg/injection, schedule: Q01DX005 (ip), vehicle: Klucel (hydroxypropylcellulose) (HPC).
[9] abbreviates: dose: 120.0 mg/kg/injection, schedule: Q01DX005 (ip), vehicle: Klucel (hydroxypropylcellulose) (HPC).
Where [10] appears, read: dose: 240.0 mg/kg/injection, schedule: Q01DX005 (ip), vehicle: Klucel (hydroxypropylcellulose) (HPC).

Several values for one entry are separate records, joined by “and”; a condition that tells them apart may be missing. Equal values may be shown once. Inconclusive results and toxic doses are left out.

With `OC1CC2CCCCC2CC1C1CCCCC1` (centres undefined), the T/C was 90 % of control under setting [1]; 91 % of control (dose: 200.0 mg/kg/injection, schedule: Q01DX001 (ip), vehicle: Klucel (hydroxypropylcellulose) (HPC)); 94 % of control (dose: 400.0 mg/kg/injection, schedule: Q01DX001 (ip), vehicle: Klucel (hydroxypropylcellulose) (HPC)).

For the compound `CCOCCOCCOC(C)Oc1ccc(Br)cc1` (centres undefined), the T/C reads like this: (dose: 60.0 mg/kg/injection, schedule: Q01DX005 (ip), vehicle: saline with Tween-80) 104 % of control; (dose: 120.0 mg/kg/injection, schedule: Q01DX005 (ip), vehicle: saline with Tween-80) 100 % of control; (dose: 240.0 mg/kg/injection, schedule: Q01DX005 (ip), vehicle: saline with Tween-80) 104 % of control.

`CSc1nc(C)cc(N)n1`: the T/C is 115 % of control (dose: 12.5 mg/kg/injection, schedule: Q04DX003 (ip), vehicle: Klucel (hydroxypropylcellulose) (HPC)); 99 % of control (dose: 25.0 mg/kg/injection, schedule: Q04DX003 (ip), vehicle: Klucel (hydroxypropylcellulose) (HPC)); 99 % of control (dose: 50.0 mg/kg/injection, schedule: Q04DX003 (ip), vehicle: Klucel (hydroxypropylcellulose) (HPC)); 103 % of control (dose: 100.0 mg/kg/injection, schedule: Q04DX003 (ip), vehicle: Klucel (hydroxypropylcellulose) (HPC)).

Regarding `CC(=O)NS(=O)(=O)c1ccc(N=CC2C(=O)N(c3ccccc3)N(c3ccccc3)C2=O)cc1`, the T/C is 86 % of control (dose: 25.0 mg/kg/injection, schedule: Q01DX001 (ip), vehicle: Klucel (hydroxypropylcellulose) (HPC)); 91 % of control (dose: 50.0 mg/kg/injection, schedule: Q01DX001 (ip), vehicle: Klucel (hydroxypropylcellulose) (HPC)); 92 % of control under setting [1].

In the case of `COc1ccc(NC2=NCCS2)cc1`, the T/C under setting [2] was 100 % of control; the T/C (dose: 100.0 mg/kg/injection, schedule: Q04DX003 (ip), vehicle: saline with Tween-80) is 100 % of control; the T/C (dose: 200.0 mg/kg/injection, schedule: Q04DX003 (ip), vehicle: saline with Tween-80) was 100 % of control.

As to `C=C1C(=O)OC2/C=C(\C)CC/C=C(/C=O)CC(OC(=O)C(C)C)C12` (centres undefined), the T/C is 100 % of control (dose: 5.0 mg/kg/injection, schedule: Q01DX009 (ip), vehicle: other); 91 % of control (dose: 10.0 mg/kg/injection, schedule: Q01DX009 (ip), vehicle: other); 112 % of control (dose: 20.0 mg/kg/injection, schedule: Q01DX009 (ip), vehicle: other).

For the compound `COc1ccc(/C(C#N)=C\c2ccnc3ccccc23)cc1`, the T/C is, setting by setting: (dose: 1.56 mg/kg/injection, schedule: Q01DX009 (ip), vehicle: distilled water + Tween-80) 103 % of control; (dose: 3.13 mg/kg/injection, schedule: Q01DX009 (ip), vehicle: distilled water + Tween-80) 94 % of control; (dose: 6.25 mg/kg/injection, schedule: Q01DX009 (ip), vehicle: distilled water + Tween-80) 93 % of control; under setting [3], 94 % of control; under setting [4], 91 % of control.

`O=C1CN(CCN2CCCCC2)CC(=O)N2Cc3ccccc3CN12`: the T/C was 102 % of control (dose: 12.5 mg/kg/injection, schedule: Q01DX005 (ip), vehicle: saline with Tween-80); 104 % of control (dose: 25.0 mg/kg/injection, schedule: Q01DX005 (ip), vehicle: saline with Tween-80); 100 % of control and 102 % of control under setting [5].

With `CNC(=O)OCc1c(COC(=O)NC)c2n(c1C)CCc1ccccc1-2`, the T/C under setting [3] was 153 % of control.

Turning to `NNC(=O)SCCC(=O)O`, the T/C under setting [5] is 97 % of control, the T/C under setting [6] is 97 % of control and the T/C under setting [7] was 101 % of control.

For `O=C1OC(=O)C2=C1CCC2`, the T/C was 100 % of control under setting [3]; 100 % of control under setting [4]; 91 % of control (dose: 50.0 mg/kg/injection, schedule: Q01DX009 (ip), vehicle: distilled water + Tween-80).

As for `CCc1ccc2c(c1)C(O)(c1ccccc1)c1c(c(-c3ccccc3)c3ccccc3c1-c1ccccc1)C2(O)c1ccccc1` (centres undefined), the T/C is, setting by setting: under setting [5], 92 % of control; under setting [6], 89 % of control; under setting [7], 89 % of control.

On to `COC(/C=N/OC(=O)c1ccc([N+](=O)[O-])cc1)c1ccccc1` (centres undefined), for which the T/C (dose: 25.0 mg/kg/injection, schedule: Q04DX003 (ip), vehicle: saline with Tween-80) was 89 % of control and 92 % of control; the T/C under setting [2] is 92 % of control and 94 % of control.

With `CC(C)CC(NC(=O)CNC(=O)CN)C(=O)O` (centres undefined), the T/C (dose: 60.0 mg/kg/injection, schedule: Q01DX005 (ip), vehicle: saline) is 102 % of control; the T/C (dose: 120.0 mg/kg/injection, schedule: Q01DX005 (ip), vehicle: saline) is 99 % of control; the T/C (dose: 240.0 mg/kg/injection, schedule: Q01DX005 (ip), vehicle: saline) is 106 % of control.

Turning to `CN(C)c1ccc(C2(c3ccc(N(C)C)cc3)NNC(=O)c3cc(N(C)C)ccc32)cc1`, the T/C is 100 % of control (dose: 1.5 mg/kg/injection, schedule: Q01DX005 (ip), vehicle: saline); 93 % of control (dose: 3.0 mg/kg/injection, schedule: Q01DX005 (ip), vehicle: saline); 95 % of control (dose: 6.0 mg/kg/injection, schedule: Q01DX005 (ip), vehicle: saline); 92 % of control (dose: 6.25 mg/kg/injection, schedule: Q01DX005 (ip), vehicle: saline with Tween-80).

On to `Cn1c(C2(C)C(=O)NC(=O)c3cnccc32)cc2ccccc21` (centres undefined), for which the T/C reads like this: (dose: 100.0 mg/kg/injection, schedule: Q04DX002 (ip), vehicle: Klucel (hydroxypropylcellulose) (HPC)) 103 % of control; (dose: 200.0 mg/kg/injection, schedule: Q04DX002 (ip), vehicle: Klucel (hydroxypropylcellulose) (HPC)) 92 % of control.

In the case of `Nc1ncnc2c1c1c(=O)[nH]c(=O)[nH]c1n2C1OC(CO)C(O)C1O` (centres undefined), the T/C by setting is: (dose: 25.0 mg/kg/injection, schedule: Q01DX005 (ip), vehicle: distilled water + Tween-80) 113 % of control; (dose: 50.0 mg/kg/injection, schedule: Q01DX005 (ip), vehicle: distilled water + Tween-80) 110 % of control; (dose: 100.0 mg/kg/injection, schedule: Q01DX005 (ip), vehicle: distilled water + Tween-80) 111 % of control; (dose: 200.0 mg/kg/injection, schedule: Q01DX005 (ip), vehicle: distilled water + Tween-80) 111 % of control; (dose: 400.0 mg/kg/injection, schedule: Q01DX005 (ip), vehicle: distilled water + Tween-80) 121 % of control.

Consider `NC(=O)c1ccc(=S)[nH]c1`, for which the T/C is 106 % of control (dose: 12.5 mg/kg/injection, schedule: Q01DX009 (ip), vehicle: Klucel (hydroxypropylcellulose) (HPC)); 103 % of control (dose: 25.0 mg/kg/injection, schedule: Q01DX009 (ip), vehicle: Klucel (hydroxypropylcellulose) (HPC)); 97 % of control (dose: 50.0 mg/kg/injection, schedule: Q01DX009 (ip), vehicle: Klucel (hydroxypropylcellulose) (HPC)); 103 % of control (dose: 100.0 mg/kg/injection, schedule: Q01DX009 (ip), vehicle: Klucel (hydroxypropylcellulose) (HPC)).

As to `CC1=CCC[C@@H]2C1(C)CCC(C)[C@@]2(C)CC1=CC(=O)C=CC1=O` (some centres undefined), the T/C was 99 % of control (dose: 0.62 mg/kg/injection, schedule: Q01DX005 (ip), vehicle: saline with Tween-80); 103 % of control (dose: 1.25 mg/kg/injection, schedule: Q01DX005 (ip), vehicle: saline with Tween-80); 99 % of control (dose: 2.5 mg/kg/injection, schedule: Q01DX005 (ip), vehicle: saline with Tween-80); 98 % of control (dose: 5.0 mg/kg/injection, schedule: Q01DX005 (ip), vehicle: saline with Tween-80); 103 % of control (dose: 10.0 mg/kg/injection, schedule: Q01DX005 (ip), vehicle: saline with Tween-80).

Regarding `CN(C)c1ccc(C=C2C(=O)N(c3ccccc3)C(=S)N(c3ccccc3)C2=O)cc1`, the T/C is 90 % of control under setting [8], 92 % of control under setting [9] and 92 % of control under setting [10].

Take `CC(C)CNc1ncnc2n[nH]nc12`: the T/C under setting [5] was 100 % of control, the T/C under setting [6] was 103 % of control and the T/C under setting [7] was 100 % of control.

Take `CCCC(=O)ON(C)C(=O)CCC`: the T/C is 96 % of control under setting [6]; 105 % of control under setting [7]; 117 % of control (dose: 400.0 mg/kg/injection, schedule: Q01DX005 (ip), vehicle: saline with Tween-80).

As to `Oc1c2ccccc2cc2cnc3ccccc3c12`, the T/C under setting [8] was 102 % of control, the T/C under setting [9] is 109 % of control and the T/C under setting [10] was 111 % of control.
